Test results reported in patent US10350210B2, “EGFR and ALK dual inhibitor” (PRECEDO PHARMACEUTICALS CO., LTD, priority 2015, dated 2019).

Columns and labels:
[1] = tested on: EGFR protein (EGFR L858R/T790M, H1975); assay: Effect on signaling pathway in cells, H1975; type: cell-based, human; settings: 4 h
Source text: In four cell lines (all purchased from ATCC) including non-small cell lung cancer cell line A549 (expressing wild-type EGFR gene), non-small cell lung cancer cell line H1975 (expressing EGFR L858R/T790M double mutant gene), non-small cell lung cancer cell line H3255 (expressing EGFR L858R mutant gene) and non-small cell lung cancer cell line PC-9 (expressing EGFR delE746_A750 mutant gene), the effect of Compound 1 on EGFR or other protein kinases related to signaling pathways of EGFR such as Stat3, AKT, ErK, eIF4E, 4EBP1, P70S6K was assessed by assaying a number of cellular biochemical and functional endpoints. […] The effect of Compound 1 on phosphorylation of Stat3Y705, AKT T308, AKT 5473, Erk T202/204, EGFR Y1068, P70S6K Thr389, eIF4E Ser209, Erk T202/204, 4EBP1 (Thr37/46) in these cell lines was assayed (FIGS. 1a to 1d).
In non-small cell lung cancer cell line H1975 (expressing EGFR L858R/T790M double mutant gene), the effect of Compound 10 on EGFR and other protein kinases that are closely related to the signaling pathways of EGFR such as Stat3, AKT, ErK, eIF4E, 4EBP1, P70S6K in this cell was assessed by assaying a number of cellular biochemical and functional endpoints. […] The effect of Compound 10 on phosphorylation of Stat3Y705, AKT T308, AKT S473, Erk T202/204, EGFR Y1068, P70S6K Thr389, eIF4E Ser209, Erk T202/204, 4EBP1 (Thr37/46) in this cell line was assayed (FIG. 1g).

[2] = tested on: NCI-H3122; assay: Effect on cell cycle (PI staining, flow cytometer), NCI-H3122; type: cell-based, human; settings: NCI-H3122 (ALK gene), 24 hours
Source text: In order to study which growth phase the cell was halted after administration of the drugs, five cell lines including non-small cell lung cancer cell line A549 (expressing wild-type EGFR gene), non-small cell lung cancer cell line H1975 (expressing EGFR L858R/T790M double mutant gene), non-small cell Lung cancer cell line PC-9 (expressing EGFR delE746_A750 mutant gene), non-small cell lung cancer cell line H3255 (expressing EGFR L858R mutant gene) and non-small cell lung cancer cell NCI-H3122 (expressing ALK gene) were tested for effect of Compound 1 on cell cycle distribution. Two cell lines including non-small cell lung cancer cell NCI-H3122 (expressing ALK gene) and non-small cell lung cancer cell H1975 (expressing EGFR L858R/T790M double mutant gene) were tested for effect of Compound 10 on cell cycle distribution. […]

Structure (SMILES)	concentration able to completely inhibit the phosphorylation of EGFR protein (also affects AKT and ERK phosphorylation) [1] [µM]	effect on cell cycle distribution [2]
C=CC(=O)Nc1cc(Nc2ncc(Cl)c(Nc3ccccc3S(=O)(=O)C(C)C)n2)c(OC)cc1N1CCN(CC)CC1 [Compound 1, N-(5-(5-chloro-4-(2-(isopropylsulfonyl)phenylamino)pyrimidin-2-ylamino)-2-(4-ethylpiperazin-1-yl)-4-methoxyphenyl)acrylamide]	0.03	halt the cells in G0-G1 phase
C=CC(=O)Nc1cc(Nc2ncc(Cl)c(Nc3ccccc3S(=O)(=O)C(C)C)n2)c(OC)cc1N1CCCN(C)CC1 [Compound 10, N-(5-(5-chloro-4-(2-(isopropylsulfonyl)phenylamino)pyrimidin-2-ylamino)-4-methoxy-2-(4-methyl-1,4-homopiperazin-1-yl)phenyl)acrylamide]	0.03	halt the cells in G0-G1 phase
